Experimental data from BigSolDB 2.1.

NNC(=O)c1ccncc1
solubility (mole fraction)
Conditions | 283.15 K | 288.15 K | 293.15 K | 298.15 K | 303.15 K | 308.15 K | 313.15 K | 318.15 K | 323.15 K
in DMF | 0.023 | 0.027 | 0.031 | 0.035 | 0.0412 | 0.0458 | 0.0511 | 0.0567 | 0.0649
in acetonitrile | 0.000725 | 0.000912 | 0.00109 | 0.00141 | 0.00169 | 0.002 | 0.00241 | 0.00288 | 0.00331
in ethanol | 0.00266 | 0.00318 | 0.00384 | 0.00465 | 0.00549 | 0.00646 | 0.00754 | 0.0087 | 0.00996
in ethyl acetate | 0.000976 | 0.0012 | 0.00136 | 0.0016 | 0.00195 | 0.00234 | 0.00279 | 0.00331 | 0.00374
in isopropanol | 0.0021 | 0.00253 | 0.00314 | 0.00373 | 0.00453 | 0.00558 | 0.00651 | 0.00804 | 0.00949
in methanol | 0.00574 | 0.0067 | 0.00797 | 0.00961 | 0.0112 | 0.0131 | 0.0151 | 0.0179 | 0.0211
in n-propanol | 0.00219 | 0.00264 | 0.00329 | 0.00419 | 0.00495 | 0.0059 | 0.00705 | 0.0084 | 0.00983
in water | 0.0106 | 0.0134 | 0.0159 | 0.0198 | 0.024 | 0.0296 | 0.0354 | 0.0421 | 0.0517
